Measurements as given in PubChem BioAssay (NCI).
Values after ≈ are worked out from the molar mass of the structure shown.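 Following 48 hours of exposure in 96-well plates, responses at five concentrations were used to interpolate endpoints linearly. At the GI50, growth is halved. TGI: concentration producing complete growth inhibition.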

What was measured:
Test in all cases: NCI-60 cell line screen, 48 h
EKVX NSCLC = system: EKVX NSCLC
HCT-116 colon = system: HCT-116 colon
HL-60(TB) leukemia = system: HL-60(TB) leukemia
SF-539 CNS = system: SF-539 CNS
SR leukemia = system: SR leukemia
UACC-257 melanoma = system: UACC-257 melanoma
K-562 leukemia = system: K-562 leukemia
BT-549 breast = system: BT-549 breast
HOP-62 NSCLC = system: HOP-62 NSCLC
MCF7 breast = system: MCF7 breast
MDA-MB-231 breast = system: MDA-MB-231 breast
MDA-MB-435 = system: MDA-MB-435
MDA-N = system: MDA-N
NCI/ADR-RES ovarian = system: NCI/ADR-RES ovarian

| SMILES | TGI (EKVX NSCLC) | TGI (HCT-116 colon) | TGI (HL-60(TB) leukemia) | TGI (SF-539 CNS) | TGI (SR leukemia) | TGI (UACC-257 melanoma) | TGI (K-562 leukemia) | TGI (BT-549 breast) | TGI (HOP-62 NSCLC) | TGI (MCF7 breast) | TGI (MDA-MB-231 breast) | TGI (MDA-MB-435) | TGI (MDA-N) | TGI (NCI/ADR-RES ovarian) | GI50 (BT-549 breast) | GI50 (HCT-116 colon) | GI50 (HOP-62 NSCLC) | GI50 (MCF7 breast) | GI50 (MDA-MB-231 breast) | GI50 (MDA-MB-435) |
| --- | --- | --- | --- | --- | --- | --- | --- | --- | --- | --- | --- | --- | --- | --- | --- | --- | --- | --- | --- | --- |
| ICC1CCCO1 (stereo unspecified) | > 100 µM | > 100 µM | > 100 µM | > 100 µM | > 100 µM | > 100 µM | – | – | – | – | – | – | – | – | – | – | – | – | – | – |
| O=C=C=P(c1ccccc1)(c1ccccc1)c1ccccc1 | > 100 µM | > 100 µM | 92.4 µM | > 100 µM | > 100 µM | > 100 µM | > 100 µM | – | – | – | – | – | – | – | – | – | – | – | – | – |
| CCOP(=O)(C/C=C/Cn1ncc(=O)[nH]c1=O)OCC | > 100 µM | – | > 100 µM | > 100 µM | – | > 100 µM | > 100 µM | > 100 µM | > 100 µM | > 100 µM | > 100 µM | > 100 µM | > 100 µM | > 100 µM | – | – | – | – | – | – |
| Cc1nc2nc(C)n(CCN3CCOCC3)c(=O)c2c(-c2cccc([N+](=O)[O-])c2)c1C(=O)CCCCCCCCCCN1CCC(c2ccccc2)(c2ccccc2)CC1 | – | 3.45 µg/mL | – | – | – | – | – | 4.48 µg/mL | 4.06 µg/mL | 3.65 µg/mL | 3.53 µg/mL | 3.79 µg/mL | – | – | 2.33 µg/mL (≈ 2.87 µM) | 1.63 µg/mL (≈ 2 µM) | 2.07 µg/mL (≈ 2.55 µM) | 1.67 µg/mL (≈ 2.06 µM) | 1.68 µg/mL (≈ 2.07 µM) | 1.9 µg/mL (≈ 2.34 µM) |
| CC1(C)OCC(CO)(CO)CO1 | – | > 100 µM | > 100 µM | – | > 100 µM | > 100 µM | > 100 µM | – | – | > 100 µM | > 100 µM | > 100 µM | > 100 µM | > 100 µM | – | – | – | – | – | – |
| O=Cc1cn(CCCCCCCCn2cc(C=O)c3ccccc32)c2ccccc12 | > 10 µM | > 10 µM | > 10 µM | > 10 µM | > 10 µM | – | > 10 µM | – | > 10 µM | > 10 µM | > 10 µM | > 10 µM | > 10 µM | > 10 µM | – | – | – | – | – | – |
| c1ccc(C2=NN2c2ccccc2)cc1 | > 100 µM | – | – | > 100 µM | > 100 µM | > 100 µM | > 100 µM | > 100 µM | > 100 µM | > 100 µM | > 100 µM | > 100 µM | > 100 µM | > 100 µM | – | – | – | – | – | – |
